Experimental findings from patent US20250302833A1, “PHARMACEUTICAL COMPOSITION FOR TREATING OR PREVENTING CYSTIC DISEASE” (CHUGAI SEIYAKU KABUSHIKI KAISHA, priority 2022, published 2025) are described below.

What all share (type): cell-based
One experiment has as its target T1, human NaPi-IIb (Homo sapiens, UniProt O95436).
T1 construct: expressed in transfected cells; host or cells: CHO cells, transient transfection with Fugene HD
T1 sequence (O95436 1-690): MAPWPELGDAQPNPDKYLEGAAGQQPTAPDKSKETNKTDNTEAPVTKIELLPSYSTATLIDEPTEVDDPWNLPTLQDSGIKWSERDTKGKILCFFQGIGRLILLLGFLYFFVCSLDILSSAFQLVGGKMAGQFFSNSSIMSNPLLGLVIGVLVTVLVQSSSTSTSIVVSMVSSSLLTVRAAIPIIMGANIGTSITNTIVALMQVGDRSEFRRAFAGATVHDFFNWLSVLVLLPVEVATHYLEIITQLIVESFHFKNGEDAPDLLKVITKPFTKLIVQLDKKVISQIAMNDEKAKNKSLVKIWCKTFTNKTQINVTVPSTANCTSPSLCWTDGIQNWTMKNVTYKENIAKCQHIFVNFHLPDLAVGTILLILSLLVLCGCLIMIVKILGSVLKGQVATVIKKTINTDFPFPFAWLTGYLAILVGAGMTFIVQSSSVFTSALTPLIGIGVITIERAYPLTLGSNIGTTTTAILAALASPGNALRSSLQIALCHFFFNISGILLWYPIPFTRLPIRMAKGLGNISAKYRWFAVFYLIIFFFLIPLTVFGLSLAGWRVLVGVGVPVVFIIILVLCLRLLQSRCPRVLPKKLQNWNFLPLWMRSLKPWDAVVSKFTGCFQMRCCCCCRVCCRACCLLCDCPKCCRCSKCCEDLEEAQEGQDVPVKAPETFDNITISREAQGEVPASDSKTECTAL
Briefly: 33PO4 uptake inhibition in CHO cells expressing human NaPi-IIb. The conditions noted are these: CHO cells transiently expressing human NaPi-IIb, pH 6.5. As for the experimental part:
For transient expression, human NaPi-IIb expression plasmids, human PiT1 expression plasmids, human PiT2 expression plasmids, and Fugene HD Transfection (Promega Corporation) were added to CHO cells using a 96-well plate, and the plate was incubated in a C02 incubator for 16 hours. The medium was replaced with buffer A (145 mM choline chloride, 3 mM KCl, 1 mM CaCl2), 0.5 mM MgCl2, 5 mM glucose, 5 mM MES, (pH 6.5)), and then replaced with buffer B (145 mM NaCl, 3 mM KCl, 1 mM CaCl2, 0.5 mM MgCl2, 5 mM glucose, 5 mM MES (pH 6.5)) to which a test compound was added at the final concentration of 0.01, 0.03, 0.1, 0.3, 1, 3, 10, or 30 μM, buffer A to which DMSO was added, or buffer B to which DMSO was added. After a certain time, a 1/20 amount of buffer A containing ^33PO4 (PerkinElmer Japan G. K.) was added and reacted at room temperature. After washing with ice-cooled buffer A, a liquid scintillator (MicroScint™-20, item number 6013621, PerkinElmer Japan G.K.) was added, and the ^33PO4 uptake amount was measured with the top count (Top Count NXT, PerkinElmer Japan G.K.). The inhibition rate was determined by the following formula. Here, a certain time was set to 10 minutes. The phrase “a 1/20 amount of buffer A containing ^33PO4 (PerkinElmer Japan G.K.) was added” refers to “buffer A containing ^33PO4 (PerkinElmer Japan G.K.) was added in an amount of 1/20 of the amount of solution filling the medium”.
The 50% ^33PO4-uptake inhibition concentrations (ICs) (UM) in a cell expressing human NaPi-Ilb, human PiT1, and human PiT2 were calculated from a straight line through two points sandwiching 50% inhibition rate. It should be noted that compounds 1 and 2 were not measured for baman PiT1 and human PiT2, which was indicated as “-” in Table 1.

For experiment [1], the system named is primary cells from kidney tissues of human ADPKD patients. In words: Inhibition of three-dimensional cyst formation using primary cells from kidney tissue of human ADPKD patient. The conditions noted are these: 168 h, test compound 30 μM, forskolin + ITS stimulation, 7 days 3D culture, average N=3, read-out: Inhibition rate (%) of cyst formation. The protocol: Primary cells were isolated from kidney tissues of human ADPKD patients. Under two-dimensions, the isolated cells were cultured for 2 days using DMEM/F-12 (Thermo Fisher Scientific, Inc.) supplemented with 10% FBS. Subsequently, three-dimensional culture was performed for 7 days using 3D Ready Atelocollagen (KOKEN CO., LTD.). During three-dimensional culture, 50 µM forskolin (Sigma-Aldrich Co. LLC) and ITS liquid media supplements (Sigma-Aldrich Co. LLC) were added as stimulating agents to some of the wells to form cysts, and a test compound was added at the final concentration of 30 μM. The test compound was also added to other wells at the final concentration of 30 μM. After 7 days of three-dimensional culture, it was fixed with 4% paraformaldehyde (Thermo Fisher Scientific, Inc.), and nucleic acid staining and cell membrane staining were performed with Hoechst 33342 (Thermo Fisher Scientific, Inc.) and CellLight Plasma Membrane-RFP, BacMam 2.0 (Thermo Fisher Scientific, Inc.). Three-dimensional imaging and volume analysis were performed using Operetta CLS and image analysis software Harmony (PerkinElmer Japan G.K.). The inhibition rate was determined by the following formula.

Another experiment has as its target T2, human PiT1 (Homo sapiens, UniProt Q8WUM9).
T2 construct: expressed in transfected cells; host or cells: CHO cells, transient transfection with Fugene HD
T2 sequence (Q8WUM9 1-679): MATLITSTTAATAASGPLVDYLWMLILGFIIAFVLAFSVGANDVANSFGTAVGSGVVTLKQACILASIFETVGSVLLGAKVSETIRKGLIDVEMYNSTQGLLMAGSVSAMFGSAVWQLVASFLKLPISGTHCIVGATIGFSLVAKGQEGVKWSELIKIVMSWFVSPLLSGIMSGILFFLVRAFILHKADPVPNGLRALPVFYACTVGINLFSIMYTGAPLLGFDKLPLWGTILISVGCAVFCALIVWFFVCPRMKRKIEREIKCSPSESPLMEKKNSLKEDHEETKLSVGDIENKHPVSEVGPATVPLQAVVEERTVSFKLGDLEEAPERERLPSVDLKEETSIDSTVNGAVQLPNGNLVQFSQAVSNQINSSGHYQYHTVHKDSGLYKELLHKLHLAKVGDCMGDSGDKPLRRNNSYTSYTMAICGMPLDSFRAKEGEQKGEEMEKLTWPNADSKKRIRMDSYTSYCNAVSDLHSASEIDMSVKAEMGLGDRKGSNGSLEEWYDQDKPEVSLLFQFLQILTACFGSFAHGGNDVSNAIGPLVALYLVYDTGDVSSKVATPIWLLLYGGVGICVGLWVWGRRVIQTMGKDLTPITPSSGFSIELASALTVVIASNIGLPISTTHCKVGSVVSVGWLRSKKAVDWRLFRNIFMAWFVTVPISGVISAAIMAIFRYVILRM
Briefly: 33PO4 uptake inhibition in CHO cells expressing human PiT1. The conditions noted are these: CHO cells transiently expressing human PiT1, pH 6.5. As for the experimental part:
(§1) For transient expression, human NaPi-IIb expression plasmids, human PiT1 expression plasmids, human PiT2 expression plasmids, and Fugene HD Transfection (Promega Corporation) were added to CHO cells using a 96-well plate, and the plate was incubated in a C02 incubator for 16 hours. The medium was replaced with buffer A (145 mM choline chloride, 3 mM KCl, 1 mM CaCl2), 0.5 mM MgCl2, 5 mM glucose, 5 mM MES, (pH 6.5)), and then replaced with buffer B (145 mM NaCl, 3 mM KCl, 1 mM CaCl2, 0.5 mM MgCl2, 5 mM glucose, 5 mM MES (pH 6.5)) to which a test compound was added at the final concentration of 0.01, 0.03, 0.1, 0.3, 1, 3, 10, or 30 μM, buffer A to which DMSO was added, or buffer B to which DMSO was added. After a certain time, a 1/20 amount of buffer A containing ^33PO4 (PerkinElmer Japan G. K.) was added and reacted at room temperature. After washing with ice-cooled buffer A, a liquid scintillator (MicroScint™-20, item number 6013621, PerkinElmer Japan G.K.) was added, and the ^33PO4 uptake amount was measured with the top count (Top Count NXT, PerkinElmer Japan G.K.). The inhibition rate was determined by the following formula. Here, a certain time was set to 10 minutes. […]

The target in the next experiment is T3, human PiT2 (Homo sapiens, UniProt Q08357).
T3 construct: expressed in transfected cells; host or cells: CHO cells, transient transfection with Fugene HD
T3 sequence (Q08357 1-652): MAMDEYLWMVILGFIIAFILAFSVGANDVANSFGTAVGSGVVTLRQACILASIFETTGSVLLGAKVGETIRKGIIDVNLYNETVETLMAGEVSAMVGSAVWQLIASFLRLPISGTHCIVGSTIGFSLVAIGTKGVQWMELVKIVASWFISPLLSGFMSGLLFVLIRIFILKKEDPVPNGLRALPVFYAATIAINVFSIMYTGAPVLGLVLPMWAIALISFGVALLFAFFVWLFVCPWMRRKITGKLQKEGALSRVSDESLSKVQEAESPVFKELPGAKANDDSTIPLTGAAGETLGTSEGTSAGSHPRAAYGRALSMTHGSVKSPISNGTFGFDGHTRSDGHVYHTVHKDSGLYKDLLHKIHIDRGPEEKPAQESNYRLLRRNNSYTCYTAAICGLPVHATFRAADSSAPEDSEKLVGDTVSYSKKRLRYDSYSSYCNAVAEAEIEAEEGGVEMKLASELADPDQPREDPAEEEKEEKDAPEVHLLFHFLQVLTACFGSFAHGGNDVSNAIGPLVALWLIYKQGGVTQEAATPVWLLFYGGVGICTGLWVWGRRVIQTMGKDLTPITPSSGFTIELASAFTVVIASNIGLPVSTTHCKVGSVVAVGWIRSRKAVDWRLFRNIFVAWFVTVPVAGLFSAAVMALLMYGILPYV
Briefly: 33PO4 uptake inhibition in CHO cells expressing human PiT2. The following applies: CHO cells transiently expressing human PiT2, pH 6.5. The protocol:
as §1

With `O=c1[nH]nc(Sc2ccc(C(F)(F)F)cn2)n1-c1cc(Cl)c(Cl)cc1C(F)(F)F` [Compound 1, 4-[4,5-Dichloro-2-(trifluoromethyl)phenyl]-3-[5-(trifluoromethyl)pyridin-2-yl]sulfanyl-1H-1,2,4-triazol-5-one], on human NaPi-IIb, the midpoint of inhibition, the IC50, lay at 7.9 µM. In addition, in experiment [1], the inhibition – broadly, the change of the read-out against control, counted positive when it falls – at 30 µM was determined as 98.2%.
For the compound `O=C(Nc1ccc(Cl)cc1C(=O)c1cnn(-c2ccc(Cl)c(C(F)(F)F)c2)c1)c1cccc(CN2CCC(N3CCCCC3)CC2)c1` [Compound 3, N-[4-Chloro-2-[1-[4-chloro-3-(trifluoromethyl)phenyl]pyra-zole-4-carbonyl]phenyl]-3-[(4-piperidin-1-ylpiperidin-1-yl)methyl]benzamide], the IC50 (usually the concentration needed to halve the response being measured) at human NaPi-IIb is 3.8 µM; at human PiT1 it was over 30 µM; against human PiT2, over 30 µM. In addition, in experiment [1], the inhibition at 30 µM worked out at 100%.
The compound `C[C@]12CCCN1N(Cc1cccc(Cl)c1F)C(=O)C(C(=O)Nc1cc(F)c(Br)c(F)c1)=C2O` [Compound 2, (4aR)-N-(4-Bromo-3,5-difluorophenyl)-1-[(3-chloro-2-fluorophenyl)methyl]-4-hydroxy-4a-methyl-2-oxo-6,7-dihydro-5H-pyrrolo[1,2-b]pyridazine-3-carboxamide] gave an IC50 at human NaPi-IIb of 2.9 µM. The inhibition at 30 µM in experiment [1] worked out at 100%.
